Converted amounts (≈) assume the structure as drawn. Like-named read-outs stand apart in the source and are kept apart here.
What was measured:
[1] = system: hypertensive-rat cohort; details: spironolactone subcutaneously; cited from earlier work
[2] = system: animal models; details: cited from earlier work
[3] = system: patients with severe HF (NYHA Class III or IV); details: cited from earlier work
[4] = system: patients afflicted with congestive heart failure; details: coadministered with an ACE inhibitor; cited from earlier work
[5] = system: patients with impaired ejection fraction post AMI; details: cited from earlier work
[6] = system: patients with stable NYHA Class II-IV heart failure; assay: Biological Evaluation I: randomized, double-blind, placebo and active drug-controlled 12-week trial of eplerenone with ACE inhibitor and loop diuretic; details: for plasma renin activity (PRA): drug therapy with ACE inhibitor and loop diuretic; for testosterone levels: in males; for urinary aldosterone excretion, increase from baseline: 12 week visit
[7] = system: patients with severe HF (NYHA Class IV); details: enalapril plus diuretics compared to placebo plus diuretics; cited from earlier work
[8] = system: patients with clinical evidence of HF at any time after an AMI; details: cited from earlier work; for risk reduction in all cause mortality compared to placebo: p=0.002
[9] = solubility of eplerenone in crystallization solvents; assay type: physicochemical; details: organic solvent or mixture; room temperature; organic solvents used for crystallization
[10] = system: hypertensive patients; details: despite continued ACE inhibition; cited from earlier work
[11] = system: patients with LV dysfunction 2 to 6 days following MI; details: cited from earlier work
[12] = at lower temperatures (below the enantiotropic transition temperature)
[13] = system: patients alive at Day 3 with Killip class >I; details: patients randomized to lisinopril; ACE-I treatment stopped at 42 days, more than 50% continued long-term; cited from earlier work
[14] = system: patients with myocardial infarction; details: patients with myocardial infarction receiving zofenopril; cited from earlier work

## CC(=O)S[C@@H]1CC2=CC(=O)CC[C@]2(C)[C@H]2CC[C@@]3(C)[C@@H](CC[C@@]34CCC(=O)O4)[C@H]12 [spironolactone]
[1]
  fibrosis: prevent fibrosis
[2]
  myocardial fibrosis: prevents myocardial fibrosis
[2]; listed as Spironolactone
  myocardial fibrosis: prevent fibrosis in animal models irrespective of the development of left ventricular hypertrophy and the presence of hypertension
[3]; as restated in the sample size discussion
  reduction in mortality compared to placebo: > 30%
[3]; spironolactone 25 mg daily added to standard therapy (ACE-I and loop diuretic, with or without digoxin) vs standard therapy plus placebo, p<0.001
  risk reduction for all cause mortality: 30%
[3]; spironolactone 25 mg daily added to standard therapy
  lower frequency of hospitalization for worsening HF than placebo patients: 35%
[3]; spironolactone added to standard therapy
  median increase in serum potassium concentration compared to placebo: statistically but not clinically significant
[4]
  patients in whom highly effective: 13 of 16
[5]
  ventricular dilatation and decline of systolic dysfunction: prevented ventricular dilatation and further decline of systolic dysfunction
[6]
  plasma renin activity (PRA): significantly elevated
  testosterone levels: significant increase

## CCOC(=O)[C@H](CCc1ccccc1)N[C@@H](C)C(=O)N1CCC[C@H]1C(=O)O [enalapril]
[7]
  mortality at one year reduced: 31%

## CCOC(=O)[C@H](CCc1ccccc1)N[C@@H](C)C(=O)N1[C@H](C(=O)O)C[C@@H]2CCC[C@@H]21 [ramipril]
[8]; AIRE
  first-year mortality rate in the active (ACE-I) arm: 16%
  risk reduction in all cause mortality compared to placebo: 27%
[8]; AIRE, p=0.017
  reduction in the risk of developing severe resistant HF compared to placebo: 23%
[8]; AIREX long-term (three year) follow-up
  risk reduction in all cause mortality compared to placebo: 36%
[5]
  ventricular dilatation and decline of systolic dysfunction: prevented ventricular dilatation and further decline of systolic dysfunction

## COC(=O)[C@@H]1CC2=CC(=O)CC[C@]2(C)[C@@]23O[C@@H]2C[C@@]2(C)[C@@H](CC[C@@]24CCC(=O)O4)[C@H]13 [eplerenone, Pregn-4-ene-7,21-dicarboxylic acid, 9,11-epoxy-17-hydroxy-3-oxo-, γ-lactone, methyl ester, (7^α, 11^α, 17^α)-]
[6]; 25 mg eplerenone QD, P>0.05
  urinary aldosterone excretion, increase from baseline: did not reach statistical significance
[6]
  plasma renin activity (PRA): significantly elevated
  testosterone levels: lack of effect
[6]; eplerenone at 25 mg, all patients
  reduction in BNP: highly significant
[6]; eplerenone at 100 mg, all patients
  reduction in BNP: highly significant
[6]; eplerenone dose of 50 mg
  urinary aldosterone excretion, increase from baseline: Greater increases
[6]; eplerenone dose of 100 mg
  urinary aldosterone excretion, increase from baseline: Greater increases
[6]; patients with high baseline BNP levels
  reduction in BNP: even greater
[9]
  solubility: 5 to 200 mg/mL (≈ 12.1 to 483 mM)

## C[C@H](CS)C(=O)N1CCC[C@H]1C(=O)O [captopril]
[10]
  plasma aldosterone: gradual return of plasma aldosterone to baseline levels

## CCOC(=O)[C@H](CCc1ccccc1)N[C@@H](C)C(=O)N1[C@H](C(=O)O)C[C@H]2CCCC[C@@H]21 [trandolapril]
[11]; TRACE
  first-year mortality rate in the active (ACE-I) arm: 23%
[11]; p=0.001
  relative reduction in the risk of death compared to placebo: 18%
[11]; p=0.003
  reduction in the risk of progression to severe HF compared to placebo: 29%

## COC(=O)[C@@H]1CC2=CC(=O)CC[C@]2(C)[C@@]23O[C@@H]2C[C@@]2(C)[C@@H](CC[C@@]24CCC(=O)O4)[C@H]13 [Form L]
[12]
  physical stability relative to Form H: greater physical stability

## NCCCC[C@H](N[C@@H](CCc1ccccc1)C(=O)O)C(=O)N1CCC[C@H]1C(=O)O [lisinopril]
[13]
  first-year mortality: 22%

## C[C@H](CSC(=O)c1ccccc1)C(=O)N1C[C@@H](Sc2ccccc2)C[C@H]1C(=O)O [zofenopril]
[14]
  plasma aldosterone: A similar effect
